Results from ChEMBL document CHEMBL5352412, “Discovery of 1,2-diphenylethene derivatives as human DNA topoisomerase II catalytic inhibitors and antitumor agents” (Eur J Med Chem, 2022).
Calls of active or inactive are those of the source. The calls are words filed in the database; no cut-off is given here.

What was measured:
[1] = Selectivity index, ratio of IC50 for human HL-7702 cells to IC50 for human HeLa cells; format: toxicity; conditions: HL-7702 cells versus HeLa cells, read-out: Ratio IC50
[2] = species on record: Homo sapiens; assay: Selectivity index, ratio of IC50 for human CCL-226 cells to IC50 for human HCT-116 cells
[3] = tested on: HepG2; assay: Induction of cell cycle arrest in human HepG2 cells assessed as accumulation of cells at S phase at 0.5 uM incubated for 24 hrs by PI staining based flow cytometry analysis (reference value: 28.2%); format: functional
[4] = target: T1, DNA topoisomerase 2-alpha (Homo sapiens, UniProt P11388); assay: Poison activity at human topoisomerase 2-alpha assessed as linear DNA formation at 100 to 200 microM; conditions: dose 100-200 µM
T1 sequence (P11388 whole entry): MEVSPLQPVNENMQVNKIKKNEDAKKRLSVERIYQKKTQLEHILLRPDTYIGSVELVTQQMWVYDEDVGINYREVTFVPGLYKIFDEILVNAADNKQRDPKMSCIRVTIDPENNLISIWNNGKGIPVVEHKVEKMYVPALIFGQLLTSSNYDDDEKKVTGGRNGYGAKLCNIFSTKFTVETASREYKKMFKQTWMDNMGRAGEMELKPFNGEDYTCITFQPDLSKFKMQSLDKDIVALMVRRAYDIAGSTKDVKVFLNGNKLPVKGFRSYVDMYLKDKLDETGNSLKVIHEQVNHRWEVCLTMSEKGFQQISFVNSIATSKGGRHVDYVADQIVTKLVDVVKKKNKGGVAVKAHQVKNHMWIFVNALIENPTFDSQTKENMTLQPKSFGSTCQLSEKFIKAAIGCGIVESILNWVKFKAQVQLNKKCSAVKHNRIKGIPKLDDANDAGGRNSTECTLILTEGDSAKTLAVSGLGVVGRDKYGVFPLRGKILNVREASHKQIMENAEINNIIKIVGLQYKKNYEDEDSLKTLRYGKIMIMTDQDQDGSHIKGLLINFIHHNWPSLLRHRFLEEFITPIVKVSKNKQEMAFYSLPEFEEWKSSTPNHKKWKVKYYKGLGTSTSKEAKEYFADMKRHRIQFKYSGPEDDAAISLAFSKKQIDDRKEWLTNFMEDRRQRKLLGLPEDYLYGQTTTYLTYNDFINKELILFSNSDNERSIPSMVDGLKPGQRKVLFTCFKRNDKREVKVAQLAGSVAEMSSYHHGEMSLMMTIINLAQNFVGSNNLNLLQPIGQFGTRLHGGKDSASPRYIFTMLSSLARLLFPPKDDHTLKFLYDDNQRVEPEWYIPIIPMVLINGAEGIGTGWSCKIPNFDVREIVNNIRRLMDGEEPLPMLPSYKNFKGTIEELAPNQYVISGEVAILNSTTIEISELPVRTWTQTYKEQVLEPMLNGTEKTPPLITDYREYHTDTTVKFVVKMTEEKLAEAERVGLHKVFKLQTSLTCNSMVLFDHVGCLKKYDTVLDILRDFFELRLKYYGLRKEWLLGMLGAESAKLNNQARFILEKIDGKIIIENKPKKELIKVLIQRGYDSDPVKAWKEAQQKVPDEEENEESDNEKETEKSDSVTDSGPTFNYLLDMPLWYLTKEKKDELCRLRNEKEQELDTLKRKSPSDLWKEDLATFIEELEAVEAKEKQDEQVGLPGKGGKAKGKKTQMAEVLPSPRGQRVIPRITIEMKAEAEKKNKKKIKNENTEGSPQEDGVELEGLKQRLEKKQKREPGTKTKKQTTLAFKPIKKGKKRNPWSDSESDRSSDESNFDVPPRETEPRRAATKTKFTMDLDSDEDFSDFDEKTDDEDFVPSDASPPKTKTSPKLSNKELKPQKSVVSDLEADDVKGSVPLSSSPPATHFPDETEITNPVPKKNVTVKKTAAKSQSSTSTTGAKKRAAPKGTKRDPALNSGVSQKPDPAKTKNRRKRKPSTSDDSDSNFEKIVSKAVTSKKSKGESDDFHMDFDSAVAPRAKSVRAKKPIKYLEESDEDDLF

[5] = Toxicity in C57BL/6J mouse assessed as change in body weight at 500 mg/kg administered via gavage twice at day 1 and measured for 7 days; format: organism-based; conditions: in vivo, po, 168 h, time 7 day
[6] = species on record: Homo sapiens; assay: Selectivity index, ratio of IC50 for human CCL-226 cells to IC50 for human PC-3 cells
[7] = tested on: MDA-MB-231; assay: Antiproliferative activity against human MDA-MB-231 cells incubated for 72 hrs by CCK8 assay; format: functional, cell-based; conditions: Homo sapiens, MDA-MB-231, 72 h
[8] = target: T1, DNA topoisomerase 2-alpha; assay: Inhibition of human topoisomerase 2-alpha assessed as reduction in VP-16 induced enzyme-DNA cleavage complex formation by measuring linear DNA production; conditions: dose 10-100 µM
[9] = tested on: HepG2; assay: Induction of apoptosis in human HepG2 cells assessed as late apoptotic cells at 1 uM incubated for 24 hrs by annexin-V FITC and PI staining based flow cytometry analysis (reference value: 2.3%); format: functional
[10] = target: T1, DNA topoisomerase 2-alpha; assay: Inhibition of human topoisomerase 2-alpha assessed as DNA intercalation at 100 to 200 uM using pBR322 DNA as substrate measured after 30 mins by agarose gel electrophoresis analysis; conditions: dose 100-200 µM
[11] = tested on: HeLa; assay: Antiproliferative activity against human HeLa cells incubated for 72 hrs by CCK8 assay; format: functional, cell-based
[12] = tested on: HepG2; assay: Induction of cell cycle arrest in human HepG2 cells assessed as accumulation of cells at G2/M phase at 1 uM incubated for 24 hrs by PI staining based flow cytometry analysis (reference value: 17.5%); format: functional
[13] = Selectivity index, ratio of IC50 for human HL-7702 cells to IC50 for human PC-3 cells; format: toxicity; conditions: HL-7702 cells versus PC-3 cells, read-out: Ratio IC50
[14] = tested on: HepG2; assay: Antiproliferative activity against human HepG2 cells incubated for 72 hrs by CCK8 assay; format: functional, cell-based; conditions: Homo sapiens, HepG2, 72 h

O=C(CCc1ccccc1)Nc1ccc(-c2ccc3cc(O)ccc3c2)cc1
selectivity ratio [1]: > 52.1
Ratio IC50 [2]: > 52.1
Activity [3]: 32%
Activity [4]: inactive
Activity [5]: Non-Toxic
Ratio IC50 [6]: > 52.1
IC50 [7]: 200 nM
inhibition [8]: Dose-Dependent Effect
Activity [9]: 46.1%
inhibition [10]: inactive
IC50 [11]: 100 nM
Activity [12]: 84.1%
selectivity ratio [13]: > 52.1
IC50 [14]: 300 nM
